Results published in ChEMBL document CHEMBL3046429, “Synthesis, molecular modeling study, preliminary antibacterial, and antitumor evaluation of N-substituted naphthalimides and their structural analogues” (2013).
≈ marks a conversion by molar mass, not a printed value.

What was measured:
Type in all cases: functional
[1] = system: MCF7; test: Growth inhibition of Homo sapiens (human) MCF7 cells at 10 uM after 48 hr by coulter counter analysis; conditions: MCF7, 48 h, read-out: GI
[2] = system: SNB-75; test: Growth inhibition of Homo sapiens (human) SNB75 cells at 10 uM after 48 hr by coulter counter analysis; conditions: SNB-75, 48 h, read-out: GI
[3] = system: UO-31; test: Growth inhibition of Homo sapiens (human) UO31 cells at 10 uM after 48 hr by coulter counter analysis; conditions: UO-31, 48 h, read-out: GI
[4] = system: NCI-H522; test: Growth inhibition of Homo sapiens (human) NCI-H522 cells at 10 uM after 48 hr by coulter counter analysis; conditions: NCI-H522, 48 h, read-out: GI
[5] = system: SN12C; test: Growth inhibition of Homo sapiens (human) SN12C cells at 10 uM after 48 hr by coulter counter analysis; conditions: read-out: GI
[6] = system: HOP-92; test: Growth inhibition of Homo sapiens (human) HOP92 cells at 10 uM after 48 hr by coulter counter analysis; conditions: HOP-92, 48 h, read-out: GI
[7] = system: Pseudomonas aeruginosa; test: Antibacterial activity against Pseudomonas aeruginosa assessed as growth inhibition after 24 hr by two-fold serial dilution method
[8] = system: Escherichia coli; test: Antibacterial activity against Escherichia coli assessed as growth inhibition after 24 hr by two-fold serial dilution method; conditions: for MIC: Escherichia coli, 24 h
[9] = system: Bacillus subtilis; test: Antibacterial activity against Bacillus subtilis assessed as growth inhibition after 24 hr by two fold serial dilution method
[10] = system: Staphylococcus aureus; test: Antibacterial activity against Staphylococcus aureus assessed as growth inhibition after 24 hr by two fold serial dilution method; conditions: for MIC: Staphylococcus aureus, 24 h

| Structure (SMILES) | inhibition of growth at 10 µM [1] | inhibition of growth at 10 µM [2] | inhibition of growth at 10 µM [3] | inhibition of growth at 10 µM [4] | inhibition of growth at 10 µM [5] | inhibition of growth at 10 µM [6] | MIC [7] | -logMIC [8] | MIC [8] | MIC [9] | -logMIC [10] | MIC [10] |
| --- | --- | --- | --- | --- | --- | --- | --- | --- | --- | --- | --- | --- |
| O=C(O)c1ccc(-n2c(=O)c3ccccc3c3ccccc3c2=O)cc1 | 10.1% | 11% | 15.4% | 7.66% | 6.3% | 10.1% | > 100 mg/L | 4.91 | 4.2 mg/L (≈ 12.2 µM) | 2 mg/L (≈ 5.83 µM) | 5.19 | 2.2 mg/L (≈ 6.41 µM) |
| O=C(O)c1ccc(N2C(=O)c3cccc4cccc(c34)C2=O)cc1 |  |  |  |  |  |  | > 100 mg/L | 4.91 | 3.9 mg/L (≈ 12.3 µM) | 2 mg/L (≈ 6.3 µM) | 5.3 | 1.6 mg/L (≈ 5.04 µM) |
| COc1cc(N2C(=O)c3nccnc3C2=O)cc(OC)c1OC | 4.31% | -2.75% | 12.5% | 4.82% | 5.86% | 10.2% | > 100 mg/L | 4.54 | 9 mg/L (≈ 28.5 µM) | 9 mg/L (≈ 28.5 µM) | 4.56 | 8.7 mg/L (≈ 27.6 µM) |
| COc1cc(N2C(=O)c3cccc4cccc(c34)C2=O)cc(OC)c1OC |  |  |  |  |  |  | > 100 mg/L | 5.16 | 2.5 mg/L (≈ 6.88 µM) | 2.2 mg/L (≈ 6.05 µM) | 5.26 | 2 mg/L (≈ 5.5 µM) |
| COc1cc(-n2c(=O)c3ccccc3c3ccccc3c2=O)cc(OC)c1OC |  |  |  |  |  |  | > 100 mg/L | 5.19 | 2.5 mg/L (≈ 6.42 µM) | 2.5 mg/L (≈ 6.42 µM) | 5.19 | 2.5 mg/L (≈ 6.42 µM) |
| O=c1c2ccccc2c2ccccc2c(=O)n1CCc1ccccn1 | 28.3% | 13.1% | 32.5% | 11.4% | 8.53% | 13.5% | > 100 mg/L | 3.53 | > 100 mg/L | > 100 mg/L | 3.53 | > 100 mg/L |
| O=c1c2ccccc2c2ccccc2c(=O)n1CCN1CCOCC1 |  |  |  |  |  |  | > 100 mg/L | 3.52 | > 100 mg/L | > 100 mg/L | 3.52 | > 100 mg/L |
| O=c1c2ccccc2c2ccccc2c(=O)n1-c1ccc([N+](=O)[O-])cc1[N+](=O)[O-] | -0.39% | 28.6% | 18.1% | 5.5% | 1.4% | 26.4% | > 100 mg/L | 4.99 | 4 mg/L (≈ 10.3 µM) | 2.3 mg/L (≈ 5.91 µM) | 5.25 | 2.2 mg/L (≈ 5.65 µM) |
| COc1cc(OC)c(-n2c(=O)c3ccccc3c3ccccc3c2=O)c(OC)c1 |  |  |  |  |  |  | > 100 mg/L | 5.19 | 2.5 mg/L (≈ 6.42 µM) | 2.5 mg/L (≈ 6.42 µM) | 5.19 | 2.5 mg/L (≈ 6.42 µM) |
| Cc1cc(Cl)c(-n2c(=O)c3ccccc3c3ccccc3c2=O)c(Cl)c1 | 1.96% | 10.1% | 34.7% | 1.31% | 14.8% | 1.58% | 10 mg/L (≈ 26.2 µM) | 5.17 | 2.6 mg/L (≈ 6.8 µM) | 19.2 mg/L (≈ 50.2 µM) | 4.29 | 19.5 mg/L (≈ 51 µM) |
| O=c1c2ccccc2c2ccccc2c(=O)n1-c1c(Cl)cc(Cl)cc1Cl | -1.42% | 45.6% | 10.8% | 4.08% | -1.37% | 33.6% | 10 mg/L (≈ 24.8 µM) | 5.22 | 2.4 mg/L (≈ 5.96 µM) | 18.5 mg/L (≈ 45.9 µM) | 4.33 | 19 mg/L (≈ 47.2 µM) |
| O=C1c2nccnc2C(=O)N1c1ccc([N+](=O)[O-])cc1 |  |  |  |  |  |  | > 100 mg/L | 4.41 | 10.5 mg/L (≈ 38.9 µM) | 8.5 mg/L (≈ 31.5 µM) | 4.48 | 8.9 mg/L (≈ 32.9 µM) |
| O=C1c2nccnc2C(=O)N1c1ccc([N+](=O)[O-])cc1[N+](=O)[O-] | 3.56% | 11.4% | 15.3% | 3.89% | 6.83% | -28.1% | > 100 mg/L | 4.46 | 10.9 mg/L (≈ 34.6 µM) | 8 mg/L (≈ 25.4 µM) | 4.57 | 8.4 mg/L (≈ 26.6 µM) |
